Test results: patent US20240207202A1, “COMBINATION THERAPIES TARGETING MITOCHONDRIAL BIOGENESIS FOR CANCER THERAPY” (The Wistar Institute of Anatomy and Biology, priority 2015, published 2024)

Key:
Assay type in all cases: cell-based, human
[1] = test system: mitochondrial DNA copy number; assay: Mitochondrial DNA copy number; settings: WM9, Gamitrinib 1 μM combined with PLX4720 and PD0325901 or LGX818 and MEK162
Experimental: Mitochondria DNA copy number was measured by the ratio of a mitochondrial gene, mtDNA-3, and a nuclear gene, 18S rRNA. The mtDNA-3/18S rRNA ratio was quantified by qRT-PCR on an Applied Biosystems 7500 Fast Real-Time PCR System. The reaction mixtures (25 μL final volume) contained 12.5 μL Fast SYBR Green Master Mix, 500 nM of each primer and 10 ng genomic DNA. The reaction conditions were 95° C. for 20 s, followed by 45 cycles of 95° C. for 3 s and 60° C. for 30 s. The relative mtDNA copy number was analyzed by the 2-ΔΔCt method.

mitochondrial mass = assay: Mitochondrial mass by MitoTracker Red; settings: WM9, 72 h, Gamitrinib 1 μM combined with MAPK pathway inhibitors
Experimental: Adherent melanoma cells were harvested with 0.05% Trypsin-EDTA and were washed once with 1×DPBS. Cells were labeled with CellTrace™ Violet according to the manufacturer's protocol and were allowed to adhere to tissue culture plates overnight following the drug treatment. At indicated time points following the drug treatment, floating and adherent cells were pooled, washed with Hank's Buffered Salt Solution (HBSS) and then stained with CellROX Deep Red at 2.5 μM or MitoTracer Red at 0.25 μM for 1 h in a 37° C. humidified incubator supplied with 5% CO2. Cells were then pelleted, washed with DPBS, and stained with PSVue® 643 at 5 μM diluted in TES buffer for 5 min in the dark. Cells were then immediately subjected to FACS analysis using a BD LSR II flow cytometer and at least 5,000 cells per sample were acquired.

ATP production = ATP production in WM9 cells; settings: WM9, 72 h, Gamitrinib combined with PLX4720 10 μM
Experimental: Cells were seeded into Black Plate, Clear Bottom 96 Well Assay Plates (Corning Inc., cat. #3603) at a density of 5,000 cells/well. Immediately following the drug treatment, culture media were removed. Cells in each well were incubated with a mixture of reagents containing 50 μl DPBS, 50 μl reconstituted CellTiter-Glo® Assay and 0.5 μl CyQUANT for 10 min in the dark. Both ATP luminescence and CyQUANT fluorescence were recorded with a BioTek Multi-Mode Microplate Reader. The ATP production per cell was calculated as the ratio of ATP luminescence over CyQUANT fluorescence.

2-NBDG uptake = assay: Uptake of 2-NBDG in WM9 cells; settings: WM9, 72 h, Gamitrinib combined with PLX4720 10 μM
Experimental: Cells were washed with HBSS and were then pre-incubated with Opti-MEM (Life Technologies) for 15 min. Cells were then incubated with DMEM deprived of glucose, glutamine and phenol red (Life Technologies, cat. #A14430-01) and Fetal Bovine Serum that was supplemented with 2-NBDG (Cayman Chemical, cat. #11046) at […] for 1 h. Cells were washed with HBSS and were immediately harvested for FACS analysis.

[2] = test system: LC3B-II, phospho-S6, phospho-AMPKα; assay: RPPA and immunoblotting of autophagy and metabolic stress markers in WM9 cells
From the text: The raw data of gene expression microarrays generated from Illumina Chips were normalized, background-corrected and summarized using the R package “lumi” (Du et al., 2008). Probes below background level (detection P-value <0.01) were excluded and differential expression was identified with Bayes-adjusted variance analysis using the Bioconductor Limma package. To reduce false positives, the unexpressed probes were removed. The R package “limma” (Smyth, 2004, 2005) was employed for gene differential expression analysis, followed by multiple test correction by the Benjamini and Hochberg procedure (Benjamini and Hochberg, 1995). […] We also conducted GSEA as previously reported (Subramanian et al., 2005). For GSEA, we analyzed gene sets obtained from the Molecular Signatures Database (broadinstitute.org/gsea/msigdb/). The same differential expression analysis method was applied to RPPA data.
Cells were washed with ice-cold PBS containing 100 μM Na3VO4 and scraped off culture dishes. After centrifugation, cell pellets were lysed in buffer containing 10 mM Tris-HCl, pH 7.8, 150 mM NaCl, 1 mM EDTA, 1% Nonidet P-40, 1 mM Na3VO4 and protease inhibitors (Roche complete protease inhibitor tablets). Lysates were cleared by micro-centrifugation and protein concentrations were determined with Protein Assay Dye Reagent Concentrate (Bio-Rad). […]

Substance: Gamitrinib
- mitochondrial DNA copy number [1]: decreases in mitochondrial DNA copy number
- mitochondrial mass (mitochondrial mass): decreases
- ATP production (ATP production): significantly decreased the ATP production
- uptake of 2-NBDG (2-NBDG uptake): decreased uptake of 2-NBDG
- LC3B-II, phospho-S6 and phospho-AMPKα [2]: down-regulated LC3B-II and phospho-S6 and up-regulated phospho-AMPKα
